Data taken from PubChem BioAssay AID1845219 (Molecular Pharmacology Branch, DTP, NCI, 2023).
Activity calls are given as the source filed them. How the source made its calls: active means viability on the fitted dose curve at most 10% of control; inactive means the rest.

Test system: SYO-1 tumor spheroids, viability % test/control
Test: Anticancer human tumor SYO-1 cell line growth inhibition;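 further: spheroids exposed to agents for 7 days before viability read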;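 on viability, T/C: 100% = DMSO vehicle control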
Details: spheroids with HUVEC and MSC; for IC50: curve of first compound; for viability, T/C: stronger effect = lower value
Method in brief: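 Single agents and combinations were tested on spheroids built from tumor cells plus HUVEC and hMSC, at half-log dilutions starting at or near clinical Cmax, else 10 microM; final DMSO 0.25% (v/v).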

[1] = second compound 30 pM, first compound 0.00949 µM
[2] = second compound 30 pM, first compound 0.03 µM
[3] = second compound 30 pM, first compound 0.0949 µM
[4] = second compound 30 pM, first compound 0.3 µM
[5] = second compound 30 pM, first compound 0.949 µM
[6] = second compound 30 pM, first compound 3 µM
[7] = second compound 94.9 pM, first compound 0.00949 µM
[8] = second compound 94.9 pM, first compound 0.03 µM
[9] = second compound 94.9 pM, first compound 0.0949 µM
[10] = second compound 94.9 pM, first compound 0.3 µM
[11] = second compound 94.9 pM, first compound 0.949 µM
[12] = second compound 94.9 pM, first compound 3 µM
[13] = second compound 0.0003 µM, first compound 0.00949 µM
[14] = second compound 0.0003 µM, first compound 0.03 µM
[15] = second compound 0.0003 µM, first compound 0.0949 µM
[16] = second compound 0.0003 µM, first compound 0.3 µM
[17] = second compound 0.0003 µM, first compound 0.949 µM
[18] = second compound 0.0003 µM, first compound 3 µM
[19] = second compound 0.000949 µM, first compound 0.00949 µM
[20] = second compound 0.000949 µM, first compound 0.03 µM
[21] = second compound 0.000949 µM, first compound 0.0949 µM
[22] = second compound 0.000949 µM, first compound 0.3 µM
[23] = second compound 0.000949 µM, first compound 0.949 µM
[24] = second compound 0.000949 µM, first compound 3 µM
[25] = second compound 0.003 µM, first compound 0.00949 µM
[26] = second compound 0.003 µM, first compound 0.03 µM
[27] = second compound 0.003 µM, first compound 0.0949 µM
[28] = second compound 0.003 µM, first compound 0.3 µM
[29] = second compound 0.003 µM, first compound 0.949 µM
[30] = second compound 0.003 µM, first compound 3 µM

With `CNCc1ccc(-c2cc(-c3nc(-c4ccc(S(=O)(=O)C(C)C)cc4)cnc3N)on2)cc1` + COc1cc2c(cc1O)CCNC21CSC2c3c(OC(C)=O)c(C)c4c(c3C(COC1=O)N1C(O)C3Cc5cc(C)c(OC)c(O)c5C(C21)N3C)OCO4 the IC50 (second compound 30 pM) was 134 nM, the IC50 (second compound 94.9 pM) was 49.1 nM and the IC50 (second compound 0.0003 µM) was under 9.49 nM. For the same compound, the IC50 (second compound 0.000949 µM) was under 9.49 nM, the IC50 (second compound 0.003 µM) was under 9.49 nM and the viability, T/C [1] was 100%. For the same compound, the viability, T/C [2] was 94.2%, the viability, T/C [3] was 70.5% and the viability, T/C [4] was 2.18%. The viability, T/C [5] was 0.23%, the viability, T/C [6] was 0.08% and the viability, T/C [7] was 98.6%. It also gave a viability, T/C [8] of 84%, a viability, T/C [9] of 4.65% and a viability, T/C [10] of 1.24%. For the same compound, the viability, T/C [11] was 0.12%, the viability, T/C [12] was 0.07% and the viability, T/C [13] was 11.1%. It also gave a viability, T/C [14] of 3.94%, a viability, T/C [15] of 2.02% and a viability, T/C [16] of 0.82%. The viability, T/C [17] was 0.12%, the viability, T/C [18] was 0.09% and the viability, T/C [19] was 1.37%. It also gave a viability, T/C [20] of 1.54%, a viability, T/C [21] of 1.43% and a viability, T/C [22] of 0.42%. It also gave a viability, T/C [23] of 0.09%, a viability, T/C [24] of 0.1% and a viability, T/C [25] of 0.12%. The viability, T/C [26] was 0.12%, the viability, T/C [27] was 0.1% and the viability, T/C [28] was 0.11%. The viability, T/C [29] was 0.19% and the viability, T/C [30] was 0.18%.
`Cc1sc2c(c1C)C(c1ccc(Cl)cc1)=NC(CC(=O)Nc1ccc(O)cc1)c1nnc(C)n1-2` (stereo not given) + COc1cc2c(cc1O)CCNC21CSC2c3c(OC(C)=O)c(C)c4c(c3C(COC1=O)N1C(O)C3Cc5cc(C)c(OC)c(O)c5C(C21)N3C)OCO4 was tested, and the IC50 (second compound 30 pM) was 52.9 nM, the IC50 (second compound 94.9 pM) was 43.2 nM and the IC50 (second compound 0.0003 µM) was under 9.49 nM. The IC50 (second compound 0.000949 µM) was under 9.49 nM, the IC50 (second compound 0.003 µM) was under 9.49 nM and the viability, T/C [1] was 89%. It also gave a viability, T/C [2] of 86.8%, a viability, T/C [3] of 12.1% and a viability, T/C [4] of 0.72%. The viability, T/C [5] was 0.4%, the viability, T/C [6] was 0.28% and the viability, T/C [7] was 86.1%. For the same compound, the viability, T/C [8] was 69%, the viability, T/C [9] was 8.96% and the viability, T/C [10] was 0.68%. The viability, T/C [11] was 0.34%, the viability, T/C [12] was 0.28% and the viability, T/C [13] was 6.25%. It also gave a viability, T/C [14] of 2.72%, a viability, T/C [15] of 0.68% and a viability, T/C [16] of 0.58%. For the same compound, the viability, T/C [17] was 0.32%, the viability, T/C [18] was 6.38% and the outcome [19] was “active”. For the same compound, the viability, T/C [20] was 0.65%, the viability, T/C [21] was 0.51% and the viability, T/C [22] was 0.24%. For the same compound, the viability, T/C [23] was 0.06%, the viability, T/C [24] was 0.12% and the viability, T/C [25] was 0.08%. For the same compound, the viability, T/C [26] was 0.1%, the viability, T/C [27] was 0.09% and the viability, T/C [28] was 0.1%. For the same compound, the viability, T/C [29] was 0.09% and the viability, T/C [30] was 0.21%.
`Cn1ncnc1[C@H]1c2n[nH]c(=O)c3cc(F)cc(c23)N[C@@H]1c1ccc(F)cc1` + COc1cc2c(cc1O)CCNC21CSC2c3c(OC(C)=O)c(C)c4c(c3C(COC1=O)N1C(O)C3Cc5cc(C)c(OC)c(O)c5C(C21)N3C)OCO4 gave an IC50 (second compound 30 pM) of under 9.49 nM, an IC50 (second compound 94.9 pM) of under 9.49 nM and an IC50 (second compound 0.0003 µM) of under 9.49 nM. For the same compound, the IC50 (second compound 0.000949 µM) was under 9.49 nM, the IC50 (second compound 0.003 µM) was under 9.49 nM and the viability, T/C [1] was 40.6%. It also gave a viability, T/C [2] of 8.47%, a viability, T/C [3] of 3.42% and a viability, T/C [4] of 2.17%. For the same compound, the viability, T/C [5] was 1.14%, the viability, T/C [6] was 1.2% and the viability, T/C [7] was 9.24%. For the same compound, the viability, T/C [8] was 3.72%, the viability, T/C [9] was 2.32% and the viability, T/C [10] was 1.61%. The viability, T/C [11] was 1.11%, the viability, T/C [12] was 1.06% and the viability, T/C [13] was 1.89%. It also gave a viability, T/C [14] of 1.72%, a viability, T/C [15] of 1.38% and a viability, T/C [16] of 1.22%. The viability, T/C [17] was 1.37%, the viability, T/C [18] was 0.93% and the viability, T/C [19] was 0.99%. For the same compound, the viability, T/C [20] was 0.87%, the viability, T/C [21] was 0.78% and the viability, T/C [22] was 0.83%. It also gave a viability, T/C [23] of 0.68%, a viability, T/C [24] of 0.57% and a viability, T/C [25] of 0.13%. For the same compound, the viability, T/C [26] was 0.14%, the viability, T/C [27] was 0.13% and the viability, T/C [28] was 0.14%. For the same compound, the viability, T/C [29] was 0.52% and the viability, T/C [30] was 0.24%.
For `O=C(c1cc(Cc2n[nH]c(=O)c3ccccc23)ccc1F)N1CCN(C(=O)C2CC2)CC1` + COc1cc2c(cc1O)CCNC21CSC2c3c(OC(C)=O)c(C)c4c(c3C(COC1=O)N1C(O)C3Cc5cc(C)c(OC)c(O)c5C(C21)N3C)OCO4, the IC50 (second compound 30 pM) was 1590 nM, the IC50 (second compound 94.9 pM) was 575 nM and the IC50 (second compound 0.0003 µM) was under 94.9 nM. The IC50 (second compound 0.000949 µM) was under 94.9 nM, the IC50 (second compound 0.003 µM) was under 94.9 nM and the viability, T/C [3] was 101%. For the same compound, the viability, T/C [4] was 92.3%, the viability, T/C [5] was 84.7% and the viability, T/C [6] was 7.77%. The viability, T/C (second compound 30 pM, first compound 9.49 µM) was 2.16%, the viability, T/C (second compound 30 pM, first compound 30 µM) was 1.89% and the viability, T/C [9] was 85.9%. It also gave a viability, T/C [10] of 79.7%, a viability, T/C [11] of 27.2% and a viability, T/C [12] of 4.14%. For the same compound, the viability, T/C (second compound 94.9 pM, first compound 9.49 µM) was 1.87%, the viability, T/C (second compound 94.9 pM, first compound 30 µM) was 1.22% and the viability, T/C [15] was 6.93%. It also gave a viability, T/C [16] of 3.52%, a viability, T/C [17] of 2.62% and a viability, T/C [18] of 1.83%. It also gave a viability, T/C (second compound 0.0003 µM, first compound 9.49 µM) of 1.18%, a viability, T/C (second compound 0.0003 µM, first compound 30 µM) of 1.45% and a viability, T/C [21] of 0.91%. The viability, T/C [22] was 0.86%, the viability, T/C [23] was 0.95% and the viability, T/C [24] was 0.68%. It also gave a viability, T/C (second compound 0.000949 µM, first compound 9.49 µM) of 0.61%, a viability, T/C (second compound 0.000949 µM, first compound 30 µM) of 0.39% and a viability, T/C [27] of 3.53%. The viability, T/C [28] was 0.25%, the viability, T/C [29] was 0.21% and the viability, T/C [30] was 0.22%. The viability, T/C (second compound 0.003 µM, first compound 9.49 µM) was 0.24% and the viability, T/C (second compound 0.003 µM, first compound 30 µM) was 0.31%.
